Reference: paper PMC6112376, “Comprehensive Analyses and Prioritization of Tox21 10K Chemicals Affecting Mitochondrial Function by in-Depth Mechanistic Studies” (Environmental Health Perspectives, 2018)
Read-outs that look alike come from different tables or passages of the source.

Tests used:
rat primary hepatocytes = experiment: MMP assay in rat primary hepatocytes; conditions: for IC50: read-out: MMP assays IC50 (µM) Rat Hepatocytes
HepG2 cells [1] = conditions: cited from earlier work
HepG2 cells [2] = conditions: for IC50: read-out: MMP assays IC50 (µM) HepG2
[3] = rat hepatocytes, mean ± SD of three experiments
[4] = read-out: MMP assays IC50 (µM) qHTS-HepG2
[5] = HepG2 cells, single number from one experiment
[6] = read-out: MMP assays IC50 (µM), qHTS-HepG2

| SMILES | MMP assays efficacy (%) Rat Hepatocytes (rat primary hepatocytes; [3]) | IC50 (rat primary hepatocytes; [3]) | MMP assays efficacy (%) qHTS-HepG2 (HepG2 cells [1]) | IC50 (HepG2 cells [1]; [4]) | IC50 (HepG2 cells [2]; [5]) | MMP assays IC50 (µM) Rat Hepatocytes (rat primary hepatocytes; [3]) | MMP assays IC50 (µM) qHTS-HepG2 (HepG2 cells [1]) | MMP assays IC50 (µM) HepG2 (HepG2 cells [2]; [5]) | MMP assays efficacy (%) HepG2 (HepG2 cells [2]; [5]) | IC50 (rat primary hepatocytes) | MMP assays efficacy (%) HepG2 (HepG2 cells [2]) | IC50 (HepG2 cells [1]; [6]) | IC50 (rat primary hepatocytes; Rattus norvegicus, Hepatocyte) | MMP assays IC50 (µM) HepG2 (HepG2 cells [2]) |
| --- | --- | --- | --- | --- | --- | --- | --- | --- | --- | --- | --- | --- | --- | --- |
| O=C(c1ccc(O)c(O)c1)c1ccc(O)cc1O [2,3',4,4'-Tetrahydroxybenzophenone] | -69±32% | 40.4 ± 8.45 µM | -89±13% | 7.39 ± 7.14 µM | 8.91 µM | – | – | – | – | – | – | – | – | – |
| COc1cc(Cl)ccc1Cl [2,5-Dichloroanisole] | inactive | – | inactive | – | – | inactive | inactive | inactive | inactive | – | – | – | – | – |
| CN1CC(=O)NC1=NC(=O)Nc1cccc(Cl)c1 [Fenobam; McN-3377] | inactive | – | -70±17% | 25.9 ± 1.87 µM | – | inactive | – | inactive | inactive | – | – | – | – | – |
| CCN=C1C=CC(=C(c2ccc(N(CC)CC)cc2)c2ccc(N(CC)CC)cc2)c2ccccc21.Cl [Basic blue 7] | -79±39% | 1.53 ± 1.42 µM | -87±17% | 0.02 ± 0.03 µM | 0.05 µM | – | – | – | -78% | – | – | – | – | – |
| CCCCCc1ccco1 [Compound 2-Pentylfuran] | inactive | – | -76±20% | 42.2 ± 2.81 µM | – | inactive | – | inactive | inactive | – | – | – | – | – |
| CCCCCCCC[n+]1ccn(C)c1.F[B-](F)(F)F [1-Methyl-3-octylimidazolium tetrafluoroborate] | -76±29% | 43.4 ± 7.4 µM | -73±29% | 5.66 ± 5.82 µM | 19.9 µM | – | – | – | -115% | – | – | – | – | – |
| CCC(=C(CC)c1ccc(O)cc1)c1ccc(O)cc1 [(Z,E)-Diethylstilbestrol] | – | – | -98±10% | – | – | – | – | – | – | 42.8 ± 10.3 µM | -104% | – | – | – |
| C[C@H](/C=C/[C@H](C)C(C)(C)O)[C@H]1CC[C@H]2/C(=C/C=C3C[C@@H](O)C[C@H](O)C3)CCC[C@]12C [Paricalcitol] | inactive | – | -69±16% | – | – | inactive | – | inactive | inactive | – | – | 8.91 ± 1.56 µM | – | – |
| O.O.O.O.[Na+].[O-]c1ccccc1-c1ccccc1 [Sodium 2-phenylphenate tetrahydrate] | inactive | – | -98±8% | – | 31.6 µM | inactive | – | – | -77% | – | – | 18.5 µM | – | – |
| CC(=O)O[C@@]12CO[C@@H]1C[C@H](O)[C@@]1(C)C(=O)[C@H](O)C3=C(C)[C@@H](OC(=O)[C@H](O)[C@@H](NC(=O)OC(C)(C)C)c4ccccc4)C[C@@](O)([C@@H](OC(=O)c4ccccc4)[C@H]21)C3(C)C [Docetaxel] | – | – | -57±17% | 15 ± 29.8 µM | – | – | – | – | – | – | inactive | – | 12.1 ± 4.78 µM | inactive |
| C=C1CC[C@H](O)C/C1=C/C=C1\CCC[C@]2(C)[C@@H]([C@H](C)CC[C@@H](O)C(C)(C)O)CC[C@@H]12 [24R,25-Dihydroxyvitamin D3] | -46±4% | 17.3 µM | -111±10% | 13 ± 2.17 µM | 15.5 µM | – | – | – | -133% | – | – | – | – | – |
| O=C(CC(=O)C(F)(F)F)c1ccccc1 [4,4,4-Trifluoro-1-phenyl-1,3-butanedione] | inactive | – | -103±7% | 20.4 ± 6.17 µM | 31.6 µM | inactive | – | – | -85% | – | – | – | – | – |
| CCCCCCCC[N+](C)(CCCCCCCC)CCCCCCCC.[Cl-] [N-Methyl-N,N-dioctyloctan-1-aminium chloride] | -100±17% | 19.6 ± 4.89 µM | -80±6% | – | 10 µM | – | – | – | -89% | – | – | 2.73 ± 0.32 µM | – | – |
| Nc1ccc(NC(=O)c2ccc(N)cc2)cc1 [4,4'-Diaminobenzanilide] | -86±15% | 33.5 ± 2.73 µM | -100±8% | 3.72 ± 2.85 µM | 7.08 µM | – | – | – | -93% | – | – | – | – | – |
| CO[C@H]1C[C@H](O[C@H]2[C@H](C)O[C@@H](O[C@@H]3/C(C)=C/C[C@@H]4C[C@@H](C[C@]5(C=C[C@H](C)[C@@H](C6CCCCC6)O5)O4)OC(=O)[C@@H]4C=C(C)[C@@H](O)[C@H]5OC/C(=C\C=C\[C@@H]3C)[C@]54O)C[C@@H]2OC)O[C@@H](C)[C@@H]1O [Doramectin] | inactive | – | -80±13% | 11.9 µM | 17.3 µM | inactive | – | – | -117% | – | – | – | – | – |
